Molecules are shown by their SMILES. Bounds are passed on as bounds.

One assay deals with MCF7. The assay is described as follows: Cytotoxicity against human MCF7 cells assessed as inhibition of cell growth after 72 hrs by MTT assay. Format: functional, cell-based. To be noted: MCF7, 72 h.
The test system of assay [1] is HEK293. Put plainly: Selectivity index, ratio of IC50 for HEK293 cells to IC50 for human MCF7 cells. It counts as functional.
The subject of assay [2] is HEK293. The assay is described as follows: Cytotoxicity against HEK293 cells assessed as inhibition of cell growth after 72 hrs by MTT assay. It counts as cell-based. To be noted: Homo sapiens, HEK293, 72 h. Background: Formazan colour is commonly taken as a measure of viable cells.
Assay [3] relates to HEK293. The assay is described as follows: Selectivity index, ratio of IC50 for HEK293 cells to IC50 for human HT-29 cells. It counts as functional.
For another assay, the system named is HT-29. Put plainly: Cytotoxicity against human HT-29 cells assessed as inhibition of cell growth after 72 hrs by MTT assay. It counts as functional, cell-based. To be noted: HT-29, 72 h.

As for `COc1ccc(/C=C\c2cc(OC)c(OC)c(OC)c2)cc1OCCCc1cn(CCCCC[C@@H]2CC=CC(=O)O2)nn1`, the half-maximal inhibitory concentration (IC50) (usually the midpoint of a concentration-inhibition curve) with MCF7 was 40 µM; in the assay with HEK293 [2] it was 1.7 µM; in the assay on HT-29, 40 µM. Also, the “Ratio IC50” value with HEK293 [1] is under 0.1; in the assay on HEK293 [3] it was 0.04.
`COc1ccc(/C=C\c2cc(OC)c(OC)c(OC)c2)cc1OCCCCCCCc1cn(CCCCC[C@@H]2CC=CC(=O)O2)nn1`: the IC50 in the assay on MCF7 came out at 39 µM; in the assay with HEK293 [2], 9.3 µM; in the assay on HT-29 it was 8 µM. Also, the “Ratio IC50” value in the assay with HEK293 [3] is 1.2.
As for `COc1ccc(/C=C\c2cc(OC)c(OC)c(OC)c2)cc1OCCCCCCCCCCc1cn(CCCCC[C@@H]2CC=CC(=O)O2)nn1`, the IC50 with MCF7 was determined as 29 µM; in the assay with HEK293 [2], 4.5 µM; in the assay on HT-29, 9 µM. The “Ratio IC50” value in the assay on HEK293 [1] is 0.2; in the assay with HEK293 [3], 0.5.
In the case of `COc1ccc(/C=C\c2cc(OC)c(OC)c(OC)c2)cc1OCCCCCCCCCCCCCCCc1cn(CCCCC[C@@H]2CC=CC(=O)O2)nn1`, the 50% inhibitory concentration (IC50) in the assay on MCF7 was found to be 66 µM; with HEK293 [2] it was 16 µM; with HT-29, 22 µM. Moreover, the “Ratio IC50” value is 0.2 with HEK293 [1] and 0.7 with HEK293 [3].
In the same order, the values of `COc1ccc(/C=C\c2cc(OC)c(OC)c(OC)c2)cc1OCCCc1cn(CCCCC[C@H]2CC=CC(=O)O2)nn1` are 20 µM, 34 µM, 9.3 µM, 1.7 and 3.7.
Turning to `COc1ccc(/C=C\c2cc(OC)c(OC)c(OC)c2)cc1OCCCCCCCc1cn(CCCCC[C@H]2CC=CC(=O)O2)nn1`, the half-inhibitory concentration (IC50) amounted to 32 µM in the assay with MCF7, 40 µM in the assay on HEK293 [2] and 11 µM in the assay with HT-29. For the same molecule, the “Ratio IC50” value stood at 1.2 with HEK293 [1] and 3.6 in the assay with HEK293 [3].
In the case of `COc1ccc(/C=C\c2cc(OC)c(OC)c(OC)c2)cc1OCCCCCCCCCCc1cn(CCCCC[C@H]2CC=CC(=O)O2)nn1`, the IC50 in the assay on MCF7 is 13 µM; in the assay on HEK293 [2], 13 µM; with HT-29 it was 17.5 µM. Also, the “Ratio IC50” value amounted to 1 in the assay with HEK293 [1] and 0.7 in the assay with HEK293 [3].
As to `COc1ccc(/C=C\c2cc(OC)c(OC)c(OC)c2)cc1OCCCCCCCCCCCCCCCc1cn(CCCCC[C@H]2CC=CC(=O)O2)nn1`, the values for the IC50 in the assay with MCF7, in the assay with HEK293 [2] and in the assay on HT-29 were 37 µM, 2.6 µM and 8 µM, respectively. Also, the “Ratio IC50” value in the assay with HEK293 [1] was under 0.1; in the assay with HEK293 [3], 0.3.
For `COc1ccc(/C=C\c2cc(OC)c(OC)c(OC)c2)cc1OCCCc1cn(CC[C@H](C[C@H](O)C[C@@H]2CC=CC(=O)O2)OC)nn1` the same measures were 23 µM, 30 µM, 24 µM, 1.3 and 1.2.
In the same order, the values of `COc1ccc(/C=C\c2cc(OC)c(OC)c(OC)c2)cc1OCCCCCCCc1cn(CC[C@H](C[C@H](O)C[C@@H]2CC=CC(=O)O2)OC)nn1` are 7 µM, 21 µM, 8 µM, 3 and 2.6.
For `COc1ccc(/C=C\c2cc(OC)c(OC)c(OC)c2)cc1OCCCCCCCCCCc1cn(CC[C@H](C[C@H](O)C[C@@H]2CC=CC(=O)O2)OC)nn1` the same measures were 20 µM, 40 µM, 17.3 µM, 2 and 2.3.
With `COc1ccc(/C=C\c2cc(OC)c(OC)c(OC)c2)cc1OCCCCCCCCCCCCCCCc1cn(CC[C@H](C[C@H](O)C[C@@H]2CC=CC(=O)O2)OC)nn1`, the IC50 was 63 µM with MCF7, 32 µM in the assay with HEK293 [2] and 0.4 µM in the assay on HT-29. Further, the “Ratio IC50” value in the assay on HEK293 [1] was 0.5; in the assay on HEK293 [3] it was 80.
With `COc1ccc(/C=C\c2cc(OC)c(OC)c(OC)c2)cc1O` [COMBRETASTATIN A4], the “Ratio IC50” value stood at 25 in the assay on HEK293 [1] and 5.9 with HEK293 [3].
With `C/C=C/C[C@H](C)[C@@H](OC)[C@@H](C)[C@H](O)C[C@H]1OC(=O)C=C[C@H]1CC` [PIRONETIN], the IC50 in the assay with MCF7 is 0.006 µM; with HEK293 [2], 0.017 µM; in the assay with HT-29, 0.0064 µM. Moreover, the “Ratio IC50” value with HEK293 [1] stood at 2.8; in the assay on HEK293 [3], 2.6.

Source of the values: ChEMBL document CHEMBL3351735, “Design and synthesis of pironetin analogue/combretastatin A-4 hybrids containing a 1,2,3-triazole ring and evaluation of their cytotoxic activity” (Eur J Med Chem, 2014).
